In publication PMC10461227, “Discovery of AD258 as a Sigma Receptor Ligand with Potent Antiallodynic Activity” (Journal of Medicinal Chemistry, 2023):
Values joined by “and” are separate entries in the source; they are usually repeats but may differ in a detail not shown here. Equal values may be shown once. Where a name gives a salt, the structure may show the parent alone.

Experiments:
[1] = tested on: human corneal epithelial cells (HCE); assay: MTT cell viability assay in HCE cells; conditions: 20 h incubation; for HCE cells cell viability reduction (MTT): 100 μM
[2] = tested on: capsaicin-induced mechanical hypersensitivity (allodynia) in mice; assay: Capsaicin-induced mechanical hypersensitivity (allodynia) in mice; type: in vivo; conditions: for response latency to mechanical stimulation: 40 mg/kg s.c., non-sensitized 44.19 ± 2.59 s, capsaicin + solvent 13.51 ± 1.93 s, mean ± SEM; for antiallodynic effect on capsaicin-induced allodynia (in words): 30 min before capsaicin; for dose of maximum antiallodynic effect: capsaicin-induced mechanical hypersensitivity
Procedure: We tested the effect of several of our compounds in capsaicin-induced mechanical hypersensitivity (allodynia) in mice (Figure 5). The increase in pain sensitivity in the area surrounding capsaicin injection results from central sensitization, and this process plays a pivotal role in chronic pain development and maintenance.[29]
Experiments were performed in female WT-CD1 mice (Charles River, Barcelona, Spain) weighing 25–30 g. […] The behavioral test was conducted during the light phase (from 9:00 to 15:00 h) and randomly throughout the estrous cycle.
Drug solutions were prepared immediately before the start of the experiments and injected s.c. in a volume of 5 mL/kg into the interscapular area. […] To test for the effects of PRE-084 on the antiallodynia induced by the other drugs, it was administered 5 min before the latter. Capsaicin was dissolved in 1% DMSO in physiological sterile saline to a concentration of 0.05 μg/μL. […] Control animals were injected with the same volume of the vehicle of capsaicin.
Animals were placed for 2 h in individual black-walled test compartments, which were situated on an elevated mesh-bottom platform with a 0.5 cm^2 grid to provide access to the ventral surface of the hind paws. […] Briefly, a nonflexible filament (0.5 mm diameter) was electronically driven into the ventral side of the right hind paw at least 5 mm away from the site of the injection toward the fingers. The intensity of the stimulation was set at 0.5g force.[30] When a paw withdrawal response occurred, the stimulus was automatically terminated, and the response latency was recorded. The filament was applied three times, separated by intervals of 0.5 min. The mean value of the three trials was considered the withdrawal latency time of the animal. A cutoff time of 50 s was used in each trial.

[3] = tested on: human corneal epithelial cells (HCE); assay: LDH cytotoxicity assay in HCE cells; type: cell-based; conditions: 100 μM, 20 h incubation
Procedure: The permeability of cellular membranes following the exposures was determined by measuring the amount of released LDH (lactate dehydrogenase) enzyme from HCE cells. The commercial CytoTox 96 kit (Promega, Fitchburg, WI, USA) was used according to the manufacturer’s instructions. To measure maximal LDH release, 10 μL of 10× lysis solution was added to control wells 45 min before adding the CytoTox 96 reagent. To measure the amount of released LDH, 50 μL of each well was transferred to a fresh 96-well plate and 50 μL of CytoTox 96 reagent was added followed by a 30 min incubation period. Finally, 50 μL of stop solution was added and absorbance was recorded at 490 nm (Synergy H1 Hybrid Reader, BioTek, Winooski, VT, USA). Absorbance values were corrected by background values, and the percentage of LDH release was calculated using the following formula: 100 × experimental LDH release optical density (OD)/maximum LDH release OD.

[4] = molecular target: T1, S1R (Rattus norvegicus, UniProt Q9R0C9); assay: S1R radioligand binding assay ([3H]-(+)-pentazocine, rat liver homogenates); conditions: mean ± SD of at least two experiments in duplicate
T1 construct: liver homogenates from male Sprague Dawley rats; from tissue; host or cells: rat liver homogenate (male Sprague Dawley)
T1 sequence (Q9R0C9 whole entry): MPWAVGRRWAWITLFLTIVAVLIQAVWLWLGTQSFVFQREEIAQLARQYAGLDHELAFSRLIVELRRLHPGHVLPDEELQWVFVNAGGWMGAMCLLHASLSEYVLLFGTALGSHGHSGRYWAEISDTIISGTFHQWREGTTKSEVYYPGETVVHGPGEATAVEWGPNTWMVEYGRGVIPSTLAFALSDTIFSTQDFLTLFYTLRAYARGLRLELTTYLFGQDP

[5] = molecular target: hERG (Homo sapiens, UniProt Q12809); assay: hERG activity (Qube APC electrophysiology, CHO-K1 cells expressing human ERG); type: cell-based; conditions: CHO-K1 cells that express human ERG, six concentrations 10^-10 to 10^-5 M
hERG, sequence (Q12809 whole entry): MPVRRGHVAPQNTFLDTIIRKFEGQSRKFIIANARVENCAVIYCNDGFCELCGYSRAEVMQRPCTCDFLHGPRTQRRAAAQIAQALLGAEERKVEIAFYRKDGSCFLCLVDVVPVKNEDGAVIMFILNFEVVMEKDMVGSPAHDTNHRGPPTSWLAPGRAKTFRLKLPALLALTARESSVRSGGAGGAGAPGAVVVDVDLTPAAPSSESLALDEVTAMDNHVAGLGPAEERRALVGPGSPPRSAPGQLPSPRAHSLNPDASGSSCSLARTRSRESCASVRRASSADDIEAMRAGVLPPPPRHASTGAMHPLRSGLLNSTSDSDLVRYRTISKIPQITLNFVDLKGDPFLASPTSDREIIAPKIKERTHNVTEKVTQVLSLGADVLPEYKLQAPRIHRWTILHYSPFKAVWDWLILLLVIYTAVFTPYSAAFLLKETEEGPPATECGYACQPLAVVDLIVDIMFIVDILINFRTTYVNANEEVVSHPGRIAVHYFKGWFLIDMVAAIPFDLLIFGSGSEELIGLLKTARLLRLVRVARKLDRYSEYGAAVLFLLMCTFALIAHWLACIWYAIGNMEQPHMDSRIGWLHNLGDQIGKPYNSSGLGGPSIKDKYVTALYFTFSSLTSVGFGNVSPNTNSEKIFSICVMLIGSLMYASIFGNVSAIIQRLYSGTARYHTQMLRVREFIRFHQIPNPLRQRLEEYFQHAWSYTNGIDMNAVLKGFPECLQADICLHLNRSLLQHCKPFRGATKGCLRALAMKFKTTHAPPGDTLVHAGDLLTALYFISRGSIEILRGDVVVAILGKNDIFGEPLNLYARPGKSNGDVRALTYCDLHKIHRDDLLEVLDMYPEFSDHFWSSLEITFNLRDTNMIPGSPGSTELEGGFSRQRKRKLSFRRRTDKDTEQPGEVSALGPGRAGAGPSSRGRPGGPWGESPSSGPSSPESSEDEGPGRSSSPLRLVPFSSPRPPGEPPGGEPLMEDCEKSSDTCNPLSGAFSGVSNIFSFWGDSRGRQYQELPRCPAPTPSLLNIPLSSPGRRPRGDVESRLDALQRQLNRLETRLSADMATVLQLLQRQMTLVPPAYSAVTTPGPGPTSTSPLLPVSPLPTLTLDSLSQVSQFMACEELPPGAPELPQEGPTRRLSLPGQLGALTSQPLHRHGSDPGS

[6] = Human plasma stability; type: in vitro ADME; conditions: pH 7.4, 37 °C, read-out: plasma stability T1/2
[7] = Water solubility (UHPLC-PDA); type: physicochemical; conditions: free base, ultrapure water, rt
[8] = molecular target: T2, human serotonin transporter (Homo sapiens, UniProt P31645); assay: SERT binding ([3H]Paroxetine)
T2 construct: host or cells: HEK-293 cells
T2 sequence (P31645 whole entry): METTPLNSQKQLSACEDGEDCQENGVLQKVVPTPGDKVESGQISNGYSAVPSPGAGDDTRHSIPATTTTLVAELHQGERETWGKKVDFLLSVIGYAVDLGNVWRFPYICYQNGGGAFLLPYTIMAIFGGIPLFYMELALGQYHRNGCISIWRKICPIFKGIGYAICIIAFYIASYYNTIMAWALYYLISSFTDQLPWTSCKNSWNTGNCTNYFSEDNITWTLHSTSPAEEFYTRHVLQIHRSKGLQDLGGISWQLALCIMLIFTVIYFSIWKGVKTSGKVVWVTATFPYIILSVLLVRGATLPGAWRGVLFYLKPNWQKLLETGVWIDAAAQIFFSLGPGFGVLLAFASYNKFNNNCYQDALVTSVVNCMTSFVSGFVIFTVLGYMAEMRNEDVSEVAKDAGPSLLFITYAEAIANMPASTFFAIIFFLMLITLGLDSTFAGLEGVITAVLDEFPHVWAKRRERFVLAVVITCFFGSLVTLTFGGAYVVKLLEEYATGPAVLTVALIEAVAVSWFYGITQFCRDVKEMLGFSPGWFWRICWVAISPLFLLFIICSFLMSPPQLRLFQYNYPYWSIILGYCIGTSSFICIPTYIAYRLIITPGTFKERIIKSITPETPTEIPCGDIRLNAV

[9] = molecular target: T1, S1R; assay: S1R functional assay (radioligand binding with/without phenytoin, rat liver)
[10] = tested on: mice; assay: Rotarod test (motor coordination); type: in vivo; conditions: 9d 1.25 mg/kg s.c., pregabalin 60 mg/kg s.c.; 45-240 min after administration
Procedure: The rotarod test is the most standard test to assess motor function and coordination in rodents. It consists of a rotating rod where the animal is placed, and the latency to fall is measured. Drugs that negatively affect motor coordination decrease the latency to fall.[2]
Motor coordination was assessed with an accelerating rotarod (Cibertec, Madrid, Spain), as previously described.[34] Briefly, mice were required to walk against the motion of an elevated rotating drum at increasing speed (4–80 rpm over 5 min), and the latency to fall was recorded with a cut-off time of 300 s. Mice were given three training sessions 24 h before drug testing. On the day of the test, rotarod latencies were measured immediately before the drug or vehicle (saline 5% DMSO) was administered (time 0) and several times (45, 90, 150, and 240 min) after the s.c. drug administration. As a comparison drug, we used pregabalin (60 mg/kg, s.c.), which has been reported to impair rotarod performance.[34]

[11] = molecular target: T3, human serotonin 5-HT2A receptor (Homo sapiens, UniProt P28223); assay: 5-HT2A receptor binding ([3H]Ketanserin)
T3 construct: host or cells: CHO-K1 cells
T3 sequence (P28223 whole entry): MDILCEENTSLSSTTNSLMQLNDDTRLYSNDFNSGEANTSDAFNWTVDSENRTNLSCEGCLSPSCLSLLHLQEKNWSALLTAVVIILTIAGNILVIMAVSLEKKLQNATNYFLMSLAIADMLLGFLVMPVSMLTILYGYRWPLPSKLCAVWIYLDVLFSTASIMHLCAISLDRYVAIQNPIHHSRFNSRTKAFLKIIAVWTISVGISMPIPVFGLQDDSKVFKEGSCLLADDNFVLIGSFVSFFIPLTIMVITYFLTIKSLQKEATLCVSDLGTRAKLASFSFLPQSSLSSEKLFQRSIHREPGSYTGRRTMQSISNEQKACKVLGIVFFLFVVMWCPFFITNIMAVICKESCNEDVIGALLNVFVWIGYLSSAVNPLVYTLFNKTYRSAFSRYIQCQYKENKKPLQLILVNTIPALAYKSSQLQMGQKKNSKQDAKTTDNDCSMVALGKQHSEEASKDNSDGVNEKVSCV

[12] = Metabolic stability in human liver microsomes; type: in vitro ADME
Procedure: (§1) Moreover, in vitro metabolic studies were performed using mouse and human liver microsomes. Following incubation at 0.1 μM with the liver microsomes for 1 h, reaction samples were analyzed by LC–MS/MS at different time points (0, 15, 30, 45, 60 min).
(§2) In vitro metabolic stability studies were performed by Eurofins Cerep Quality Control Unit (France) using mouse and human liver microsomes fractions in accordance with their validation Standard Operating Procedure.

[13] = Chemical stability in phosphate buffer pH 7.4; type: physicochemical; conditions: phosphate buffer pH 7.4, 37 °C; read-out: chemical stability T1/2
[14] = Metabolic stability in mouse liver microsomes; type: in vitro ADME
Procedure: as §1, §2

[15] = molecular target: T4, S2R (Rattus norvegicus, UniProt Q5U3Y7); assay: S2R radioligand binding assay ([3H]DTG with (+)-pentazocine mask, rat liver homogenates)
T4 construct: liver homogenates from male Sprague Dawley rats; from tissue; host or cells: rat liver homogenate (male Sprague Dawley)
T4 sequence (Q5U3Y7 1-176): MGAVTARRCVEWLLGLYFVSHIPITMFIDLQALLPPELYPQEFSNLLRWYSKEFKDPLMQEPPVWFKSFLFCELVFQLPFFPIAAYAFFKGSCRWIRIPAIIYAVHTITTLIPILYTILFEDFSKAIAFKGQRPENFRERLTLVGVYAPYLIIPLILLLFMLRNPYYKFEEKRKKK

Cl.O=C(OCCN1CCOCC1)C1(c2ccccc2)CCCCC1 [PRE-084, reference compound]
HCE cells cell viability reduction (MTT) [1]: 58% | concentration above which cell viability is statistically significantly reduced (MTT) ([1]; HCE cells): above 20 μM

c1ccc(CCN2CCC3(CCN(CCc4ccccc4)C3)C2)cc1 [14a, 2,7-Diphenethyl-2,7-diazaspiro[4.4]nonane]
response latency to mechanical stimulation [2]: 26.55 ± 3.55 s | antiallodynic effect on capsaicin-induced allodynia (in words) ([2]; s.c.): dose-dependent antiallodynic effects | dose of maximum antiallodynic effect ([2]; s.c.): 20 mg/kg | HCE cells cytotoxicity (LDH release) [3]: 13% | HCE cells cell viability reduction (MTT) [1]: 56%

c1ccc(CCN2CCC3(CCN(c4ccccc4)C3)C2)cc1 (stereo not shown) [8a, 2-Phenethyl-7-phenyl-2,7-diazaspiro[4.4]nonane]
response latency to mechanical stimulation [2]: 30.28 ± 5.02 s | antiallodynic effect on capsaicin-induced allodynia (in words) ([2]; s.c.): dose-dependent antiallodynic effects | dose of maximum antiallodynic effect ([2]; s.c.): 20 mg/kg | HCE cells cytotoxicity (LDH release) [3]: 16% | HCE cells cell viability reduction (MTT) [1]: 50%

CN1CCN(CCc2ccc(Cl)c(Cl)c2)CC1 [BD1063, 1-[2-(3,4-dichlorophenyl)ethyl]-4-methylpiperazine dihydrochloride, reference compound]
Ki [4]: 0.014 ± 0.0027 µM

N#Cc1ccc(N2CCC3(CCN(CCc4ccccc4)C3)C2)cc1 (stereo not shown) [9d, 4-(7-Phenethyl-2,7-diazaspiro[4.4]nonan-2-yl)benzonitrile]
IC50 [5]: 0.085 µM | half-life [6]: > 24 h | solubility at 24 h [7]: 710 µg/mL and 2140 µM | inhibition at 1 µM [8]: < 50% | SERT % inhibition ([8]; at 1 μM): 39% | S1R functional profile [9]: antagonist | latency to fall from the rotarod (in words) [10]: no change in the latency to fall | inhibition at 1 µM [11]: < 50% | 5-HT2A % inhibition ([11]; at 1 μM): 42% | microsomal CLint at 1 h, 0.1 µM ([12]; 1 h incubation): 127 µL/min/mg | half-life at 1 h, 0.1 µM ([12]; 1 h incubation, read-out: human liver microsomes T1/2): 0.917 h | half-life at 0.1 μM ([12]; read-out: human liver microsomes metabolic half-time (T1/2) (converted)): ~1 h | effect of PRE-084 on the antiallodynic effect of the compound ([2]; PRE-084 32 mg/kg s.c. given 5 min before the compound at its dose of maximum effect): fully reversed | antiallodynic effect on capsaicin-induced allodynia (in words) ([2]; s.c.): dose-dependent and full reversal of capsaicin-induced allodynia | HCE cells cytotoxicity (LDH release) [3]: 18% | HCE cells cell viability reduction (MTT) [1]: 28% | half-life [13]: > 24 h | microsomal CLint at 1 h, 0.1 µM ([14]; 1 h incubation): 124 µL/min/mg | half-life at 1 h, 0.1 µM ([14]; 1 h incubation, read-out: mouse liver microsomes T1/2): 0.933 h | half-life at 0.1 μM ([14]; read-out: mouse liver microsomes metabolic half-time (T1/2) (converted)): ~1 h

O=[N+]([O-])c1ccc(N2CCC3(CCN(CCc4ccccc4)C3)C2)cc1 (stereo not shown) [9a, 2-(4-Nitrophenyl)-7-phenethyl-2,7-diazaspiro[4.4]nonane]
dose from which significant antiallodynic effects are seen ([2]; s.c.): 5 mg/kg | antiallodynic effect on capsaicin-induced allodynia (in words) ([2]; s.c.): dose-dependent and full reversal of capsaicin-induced allodynia | dose of maximum antiallodynic effect ([2]; s.c.): 10 mg/kg | HCE cells cytotoxicity (LDH release) [3]: 23%

CC(C)(C)OC(=O)N1CCC2(CCN(c3ccccc3)C2)C1 (stereo not shown) [6a, tert-Butyl-7-phenyl-2,7-diazaspiro[4.4]nonane-2-carboxylate]
Ki [4]: 0.0407 ± 0.00095 µM | Ki [15]: 0.0761 ± 0.0012 µM

O=C(Cc1ccc(Cl)c(Cl)c1)N1CCC2(CCN(CCc3ccccc3)C2)C1 (stereo not shown) [15a, 2-(3,4-Dichlorophenyl)-1-(7-phenethyl-2,7-diazaspiro[4.4]nonan-2-yl)ethan-1-one]
Ki [4]: 0.0075 ± 0.001 µM | antiallodynic effect on capsaicin-induced allodynia (in words) ([2]; s.c.): dose-dependent and full antiallodynic effect | dose of maximum antiallodynic effect ([2]; s.c.): 40 mg/kg

CC(C)C[C@H](CN)CC(=O)O [pregabalin, reference compound]
latency to fall from the rotarod (in words) [10]: markedly reduced rotarod latencies
